{"source": "patent US9255272B2", "about": "“Use of inhibitors of leukotriene B4 receptor BLT2 for treating asthma” (Korea University Research & Business Foundation, priority 2007, dated 2016)", "key": {"BLT2 mRNA": {"test_system": "BLT2 mRNA", "test": "BLT2 mRNA in Rat2-BLT2 stable cells (RT-PCR)", "type": "cell-based", "settings": "transient transfection, 24 h", "protocol": "Suppressed BLT2 expression level was determined by RT-PCR. Rat2-BI_T2 stable cells were plated at a density of 5×10^4 cells/plate on 6 well plates. After 24 hr, cells were transiently transfected with BLT2 specific antisense and sense oligonucleotide plasmid with Lipofectamin reagent and then incubated in fresh DMEM supplemented with 10% FBS for an additional 24 h. After additional incubation, the transfected cells were harvested for BLT2 transcripts analysis. Total RNA was reverse-transcribed and PCR amplify were performed with BLT2 forward primer: 5′-[…]-3′ (SEQ ID NO: 23) and reverse primer: 5′-[…]-3′ (SEQ ID NO: 24). Non-transfected Rat2-BLT2 stable cells cDNA was used the negative control and GAPDH was shown as internal control."}, "Rac": {"test_system": "Rac", "test": "Endogenous Rac expression in lung tissue (Western blot)", "type": "in vivo, mouse", "settings": "oligonucleotides injected into tail veins, mice sacrificed after 12 hr", "text": "FIGS. 10a and 10b show activation of Rac in the lung tissue by OVA provocation and inhibition of endogenous Rac expression by antisense Rac oligonucleotide treatment. Lung samples were homogenized with micropestle and washed with PBS twice. FIG. 10a depicts Western blot analysis of Rac expression in mouse model of asthma. For membrane protein preparation, cells were suspended in Buffer A and cells were ruptured by passing through 21-G syringe. After ultracentrifugation, protein samples in pelleted membrane fraction were dissolved with buffer A containing 1% Triton X-100. FIG. 10b depicts Western blot analysis of Rac expression in mouse model of asthma administered with asRac. For whole cell lysate preparation, cells from the lung tissues of buffer, control Rac oligonucleotide or antisense Rac oligonucleotide injected mice were suspended with lysis buffer and incubated for 20 min. After centrifugation of the samples, protein quantification was carried out using Bradford reagent and Western blot analysis was performed.\nOligonucleotides, from Genotech Co. (Korea), were synthesized with a phosphorothioate backbone to improve the resistance to endonuclease. The antisense oligonucleotide consisted of 17 nucleotides analogues to the 5′ end of the murine Rac mRNA sequence, which spans the translation initiation site. […]"}, "OVA-challenged mice": {"test_system": "OVA-challenged mice", "test": "Eosinophil infiltration in BAL fluid of OVA-challenged mice", "type": "in vivo, mouse", "settings": "C57BL/6 mice, 1.6 mg/kg i.v. 24 hr and 1 hr before 10% OVA challenge, 48 hr", "protocol": "(§1) Female BALB/c mice and C57BL/6 mice (7 weeks old; 18-20 g) were obtained from Orientbion Inc. (Seoungnam, Korea). Sensitization and challenge were carried out as described previously with some modification (28). Briefly, female C57BL/6 mice (7 weeks old; 18-20 g) were immunized by intraperitoneal (i.p.) injection of 200 μg ovalbumin (OVA) emulsified in 2.5 mg of adjuvant aluminum hydroperoxide gel (alum) (Pierce, Rockford, Ill.). A second i.p. injection of 20 μg OVA adsorbed onto alum (2.5 mg) was administered 10 days later. After an additional 10 days, mice were exposed to an aerosol of 1% OVA in saline for 30 min daily on 3 consecutive days. On day 25, mice were finally challenged by provocation with 10% OVA aerosol. For inhibition experiments, sense or antisense BLT2 (1.6 mg/kg) was injected intravenously 24 h and then 1 h before the 10% OVA challenge. The mice were then killed on day 27 to assess asthmatic phenotypes. Antisense BLT2 oligonucleotide (5′-[…]-3′ (SEQ ID NO: 15)), sense BLT2 oligonucleotide (5′-[…]-3′ (SEQ ID NO: 16)).\nInflammatory cells in the BAL fluid were collected by centrifugation (1,000 g for 3 min) and washed once in PBS. Cells were counted using a hemocytometer, and viability was assessed by trypan blue exclusion. […]"}, "ROS": {"test_system": "ROS", "test": "ROS levels in BAL fluid cells (DCF fluorescence, FACS)", "type": "in vivo, mouse", "settings": "1.6 mg/kg i.v. 24 hr and 1 hr before 10% OVA; BAL fluid 48 h after challenge", "protocol": "as §1\nROS levels in BAL fluids were measured as a function of DCF fluorescence as described previously (30). […] DCF fluorescence was excited at 488 nm and the evoked emission was filtered with a 515-nm long-pass filter. […]"}}, "data": [{"substance": "BLT2 antisense oligonucleotide: BLT2 specific antisense oligonucleotide plasmid transfected into Rat2-BLT2 stable cells (antisense CAGCAGTGTCTCGTT; listed as DNA, chemistry not given here)", "values": [{"measurement": "level of BLT2 mRNA by RT-PCR", "setting": "BLT2 mRNA", "value": "reduced"}]}, {"substance": "control Rac: control oligonucleotide of same nucleotide composition, 5′-GATCAGTGCACACAGTG-3′ (SEQ ID NO: 21) (listed as DNA, chemistry not given here) [reference compound]", "values": [{"measurement": "endogenous expression of Rac in the lung tissues", "setting": "Rac", "value": "didn't show significant effect"}]}, {"substance": "sense BLT2: sense BLT2 oligonucleotide 5′-GGAATGAGACACTACTGAGC-3′ (SEQ ID NO: 16) (listed as DNA, chemistry not given here) [reference compound]", "values": [{"measurement": "effect on eosinophil infiltration in BAL fluids (in words)", "setting": "OVA-challenged mice", "value": "no inhibitory effect"}, {"measurement": "effect on ROS levels in BAL fluid (in words)", "setting": "ROS", "value": "not"}]}]}
